We go through 13 molecules from patent publication EP0826686A2, “Tricyclic compounds, their production and use” (TAKEDA CHEMICAL INDUSTRIES, LTD., priority 1996, dated 1998).

Each structure is given as a SMILES string. Structures can show the parent of a compound that is named as a salt.

Assay [1] relates to Human skin fibroblasts (Hs68). The assay is described as follows: PDGF-induced proliferation in Hs68 cells (3H-thymidine uptake). As to conditions: PDGF-BB 5 ng/ml, 24 hours; for inhibition at 1 µM: Concentration 1x10^-6 M; for inhibition at 3 µM: Concentration 3x10^-6 M; for inhibition at 0.3 µM: Concentration 3x10^-7 M. It counts as cell-based. The method, then: Experiments of PDGF-induced proliferation in Hs68 cells Method: Human skin fibroblasts (Hs68, Institute for Fermentation, Osaka) were seeded in 48-well plates precoated with collagen type I (Falcon) (25000 cells/well), and cultured for one day. Then, the cells were cultured in Dulbecco's modified Eagle's medium (high glucose) containing 0.1% bovine serum albumin for 48 hours. Fifteen (15) minutes after the addition of the drug, the cells were stimulated with 5 ng/ml of PDGF-BB (Becton Dickinson Labware) containing ^3H-thymidine (final concentration 0.4 mCi/ml) (Amersham). After 24 hours, the reaction was stopped with 7.5% trichloroacetic acid at 4°C and the plate was allowed to stand at 4°C for 30 minutes. The cells were washed with Ca^2+- and Mg^2+-free phosphate-buffered saline (PBS), after then 0.1% sodium dodecyl sulfate (SDS)/0.4N NaOH was added and the plate was allowed to stand at 37°C for 1 hour to lyze the cells. The whole content of each well was taken in a vial and neutralized with 1N HCl, and then toluene scintillator (Wako Pure Chemical Ind.) was added to each vial. After stirring, the amount of ^3H-thymidine incorporated in the cells was determined with a liquid scintillation counter. The cellular uptake of ^3H-thymidine was used as an indicator of cell proliferation. The effect of the drug on the PDGF-BB (5 ng/ml) uptake of ^3H-thymidine was expressed as % inhibition. […]

The subject of assay [2] is Glomerular mesangial cells. The assay is described as follows: Inhibition of the proliferation of mesangial cells (PDGF-BB stimulated, 3H-thymidine uptake). It counts as cell-based, Sprague-Dawley rats. Particulars: Rattus norvegicus, Glomerular mesangial cell, 24 h, PDGF-BB 5 ng/ml, read-out: Proliferation inhibiting activity (% Inhibition); for inhibition at 1 µM: Dose 10^-6 M; for inhibition at 3 µM: Dose 3 x 10^-6 M. Here is the method: Glomerular mesangial cells isolated from 4-week-old male Sprague-Dawley rats (Japan Clea) were cultured in a 24-well plate (Falcon) up to the subconfluence. The cells were subsequently cultured in Dulbecco's modified Eagle MEM containing 0.2% bovine serum albumin for 24 - 48 hours before addition of a drug substance. Fifteen minutes after the drug substance was added to the culture, the cells were allowed to react with 5 ng/ml of PDGF-BB (Becton Dickinson Labwere) for stimulation, simultaneously adding ^3H-Thymidine (final concentration 0.2 µ Ci/ml) (Amasham), for 24 hours. The reaction was blocked by adding 7.5 % TCA of 4°C. The mixture was allowed to stand at 4°C for 30 minutes. The cells were washed with phosphate buffered saline containing no Ca^2+ and Mg^2+. A 0.4N NaOH/0.1% sodium dodecyl sulfate (SDS) solution was added to the washed cells and the mixture was allowed to stand at 37°C for an hour to solubilize the cells. The whole qauntity was placed in a vial and neutralized with 1N HCl. Scintillator A (Wako Pure Chemicals) was added to this with stirring. The quantity of ^3H-Thymidine incorporated in the cells was measured by the liquid scintillation counter. The increase in the quantity of the incorporated ^3H-Thymidine was designated as the parameter of the cell proliferation. The inhibitory effect of a drug substance on the intake with PDGF-BB (5 ng/ml) was expressed as % inhibition (Table 1).

The test system of the next assay is SHC rats. The assay is described as follows: Urinary protein excretion in SHC rats. Particulars: 1 mg/kg/day oral once daily. The format is in vivo, Spontaneously hypercholesterolemic rats. The text has this:
Experiments of urinary protein excretion in SHC rats Method: Spontaneously hypercholesterolemic rats (male, 7 weeks old) were given a drug suspended in 0.5% methylcellulose (100 cP) by oral administration once daily for 6 weeks. A control group was given 0.5% methylcellulose (100 cP) by the same route once daily. As a normal control group, Sprague-Dawley rats (SD rats) (male, 7 weeks old, CLEA Japan, Inc.) were given 0.5% methylcellulose (100 cP) orally once daily. Before the start of medication and at 2-weeks intervals after the first administration of drugs, urine was collected for twenty four hours and the total protein and albumin excreted in the urine were determined. The assay of total protein and albumin was carried out using the A/GB Test Wako (Wako Pure Chemical Ind.).

The mark [3] stands for this setting: duration of administration 0 weeks (before start of medication).
Setting [4] is: duration of administration 2 weeks.
Where [5] appears, read: duration of administration 4 weeks.
The mark [6] stands for this setting: duration of administration 6 weeks.

In assay [1], `O=c1c2cnc3cccc(n1CC1CCN(S(=O)(=O)C(F)(F)F)CC1)n32` [8(ii), 1,2-Dihydro-1-(1-trifluoromethanesulfonylpiperidin-4-ylmethyl)-1,4,7b-triazacyclopent[cd]inden-2-one] came in with an inhibition at 1 µM of 74.9%.

Consider `O=C1c2cnc3cccc(n23)CN1CC1CCN(S(=O)(=O)C(F)(F)F)CC1` [11(iii), 4,5-Dihydro-4-(1-trifluoromethanesulfonylpiperidin-4-ylmethyl)-3H-1,4,8b-triazaacenaphthylen-3-one hydrochloride], for which the inhibition at 3 µM in assay [1] stood at 59.2%.

Take `O=C1c2cnc3cccc(n23)CN1CCC1CCN(S(=O)(=O)C(F)(F)F)CC1` [12(ii), 4,5-Dihydro-4-[2-(1-trifluoromethanesulfonylpiperidin-4-yl)ethan-1-yl]-3H-1,4,8b-triazaacenaphthylen-3-one]: in assay [1], the inhibition at 1 µM was 96.6%.

`Cc1nc2cccc3nc(SCCC4CCN(S(=O)(=O)C(F)(F)F)CC4)c1n23` [25(ii), 3-Methyl-2-[2-(1-trifluoromethanesulfonylpiperidin-4-yl)ethan-1-yl]thio-1,4,7b-triazacyclopent[cd]indene] had an inhibition at 0.3 µM in assay [1] of 83.4%.

Regarding `Cc1nc2cccc3n(CCC4CCN(S(=O)(=O)C(F)(F)F)CC4)c(=O)c1n23` [Compound 3, 1,2-dihydro-3-methyl-1-[2-(1-trifluoromethanesulfonylpiperidin-4-yl)ethan-1-yl]-1,4,7b-triazacyclopent[cd]inden-2-one hydrochloride], the inhibition at 0.3 µM in assay [2] (Dose 3 x 10^-7 M) is 39%. The inhibition at 1 µM in assay [2] stood at 91.1%.

In the case of `CC(C)(C)OC(=O)N1CCC(Cn2c(=O)c3cnc4cccc2n43)CC1` [Example 1, 1,2-Dihydro-1-(1-tert-butoxycarbonylpiperidin-4-ylmethyl)-1,4,7b-triazacyclopent[cd]inden-2-one], the inhibition at 3 µM in assay [2] amounted to 39.4%.

`CC(C)(C)OC(=O)N1CCC(CCn2c(=O)c3cnc4cccc2n43)CC1` [Example 2, 1,2-Dihydro-1-[2-(1-tert-butoxycarbonylpiperidin-4-yl)ethan-1-yl]-1,4,7b-triazacyclopent[cd]inden-2-one]: in assay [2], the inhibition at 3 µM was found to be 40.1% and the inhibition at 1 µM came out at 11.1%. Further, the inhibition at 10 µM in assay [2] (Dose 10^-5 M) is 58.3%.

The molecule `O=c1c2cnc3cccc(n1CCC1CCN(S(=O)(=O)C(F)(F)F)CC1)n32` [Example 9(ii), 1,2-dihydro-1-[2-(1-trifluoromethanesulfonylpiperidin-4-yl)ethan-1-yl]-1,4,7b-triazacyclopent[cd]inden-2-one] gave an inhibition at 0.3 µM in assay [1] of 94.9%. For the same molecule, the Urinary albumin in the assay on SHC rats (setting [3]) amounted to 12.0 mg/day; in the assay on SHC rats (setting [4]) it was 10.9 mg/day; in the assay on SHC rats (setting [5]), 46.2 mg/day; in the assay with SHC rats (setting [6]), 129.9 mg/day. Moreover, the Urinary total protein in the assay with SHC rats (setting [3]) is recorded as 39.2 mg/day; with SHC rats (setting [4]) it was 50.4 mg/day; in the assay on SHC rats (setting [5]), 91.3 mg/day; with SHC rats (setting [6]), 199.4 mg/day.

In the case of `O=C1c2cccc3ncc(n23)CN1CCC1CCN(S(=O)(=O)C(F)(F)F)CC1` [Example 19, 4,5-Dihydro-4-[2-(1-trifluoromethanesulfonylpiperidin-4-yl)ethan-1-yl]-3H-1,4,8b-triazaacenaphthylen-5-one], the inhibition at 1 µM in assay [1] stood at 72.8%.

As to `Cc1nc2cccc3n(CCCC4CCN(S(=O)(=O)C(F)(F)F)CC4)c(=O)c1n23` [Example 23, 1,2-Dihydro-3-methyl-1-[3-(1-trifluoromethanesulfonylpiperidin-4-yl)propan-1-yl]-1,4,7b-triazacyclopent[cd]inden-2-one], in assay [1], the inhibition at 0.3 µM was determined as 44.6%.

Take `Cc1nc2cccc3n(CCC4CCN(C(=O)C(F)(F)C(F)(F)F)CC4)c(=O)c1n23` [Example 27, 1,2-Dihydro-3-methyl-1-[2-(1-pentafluoropropionylpiperidin-4-yl)ethan-1-yl]-1,4,7b-triazacyclopent[cd]inden-2-one]: in assay [1], the inhibition at 1 µM came out at 62.7%.

For `Cc1nc2cccc3n(C[C@H]4CC[C@H](CNC(=O)C(F)(F)F)CC4)c(=O)c1n23` [Example 29, 1,2-Dihydro-3-methyl-1-[trans-4-(trifluoroacetylamino)methyl-1-cyclohexylmethyl]-1,4,7b-triazacyclopent[cd]inden-2-one], the inhibition at 3 µM in assay [1] was found to be 76.1%.

With `Cc1ccc(S(=O)(=O)NC[C@H]2CC[C@H](Cn3c(=O)c4c(C)nc5cccc3n54)CC2)cc1` [Example 32, 1,2-Dihydro-3-methyl-1-[trans-4-(4-methylphenylsulfonylamino)methyl-1-cyclohexylmethyl]-1,4,7b-triazacyclopent[cd]inden-2-one], the inhibition at 1 µM in assay [1] worked out at 80.3%.
